Molecules are shown by their SMILES.

The data set is described as follows: Caco-2 passive permeability A to B. In kind it is in vitro ADME. As to conditions: Caco-2, A to B. Here is the method: The concentration of each compound in the respective samples was determined by LC-MS.
(Caco-2 monolayers are a common model of the intestinal barrier.)

On to `CC(C)NCC(O)COc1cccc2ccccc12` (stereo not shown) [Propranolol], for which the “Apparent passive permeability A to B Paap, Min” value is given as 18.41 10^-6 cm/s.

(Values after article PMC13058478 (Frontiers in Pharmacology, 2026).)
